In BindingDB's records for doi:10.1016/s0960-894x(01)00687-4 (Merck Research Laboratories, 2001):
pIC50: −log10 of the molar value.

Assay: Inhibition of rate of ADP-stimulated gel-filtered human platelet aggregation mediated by integrin alphaIIb beta-3 in PLAGGIN assay

**Q.** With `C#C[C@H](CC(=O)O)NC(=O)CNC(=O)CCCc1ccc2c(n1)NCCC2` [(S)-3-[2-(4-5,6,7,8-Tetrahydro-[1,8]naphthyridin-2-yl-butyrylamino)-acetylamino]-pent-4-ynoic acid] as the compound, how does the pIC50 read?
**A.** < 5.00

**Q.** With `O=C(O)CCNC(=O)CNC(=O)CCCc1ccc2c(n1)NCCC2` [3-[2-(4-5,6,7,8-Tetrahydro-[1,8]naphthyridin-2-yl-butyrylamino)-acetylamino]-propionic acid] as the compound, how does the pIC50 read?
**A.** < 5.00

**Q.** With `C#C[C@H](CC(=O)O)NC(=O)CN1CC[C@H](CCc2ccc3c(n2)NCCC3)C1=O` [(S)-3-(2-{(S)-2-Oxo-3-[2-(5,6,7,8-tetrahydro-[1,8]naphthyridin-2-yl)-ethyl]-pyrrolidin-1-yl}-acetylamino)-pent-4-ynoic acid] as the compound, how does the pIC50 read?
**A.** < 5.00

**Q.** With `O=C(O)C[C@H](NC(=O)CNC(=O)CCCc1ccc2c(n1)NCCC2)c1cccnc1` [(S)-3-Pyridin-3-yl-3-[2-(4-5,6,7,8-tetrahydro-[1,8]naphthyridin-2-yl-butyrylamino)-acetylamino]-propionic acid] as the compound, how does the pIC50 read?
**A.** < 5.00

**Q.** With `O=C(O)C[C@H](NC(=O)CN1CC[C@H](CCc2ccc3c(n2)NCCC3)C1=O)c1cccnc1` [3-(2-{(S)-2-Oxo-3-[2-(5,6,7,8-tetrahydro-[1,8]naphthyridin-2-yl)-ethyl]-pyrrolidin-1-yl}-acetylamino)-3-(S)-pyridin-3-yl-propionic acid] as the compound, how does the pIC50 read?
**A.** < 5.00

**Q.** With `O=C(O)C[C@H](NC(=O)CN1CCN(CCc2ccc3c(n2)NCCC3)C1=O)c1cccnc1` [(S)-3-(2-{2-Oxo-3-[2-(5,6,7,8-tetrahydro-[1,8]naphthyridin-2-yl)-ethyl]-imidazolidin-1-yl}-acetylamino)-3-pyridin-3-yl-propionic acid] as the compound, how does the pIC50 read?
**A.** 5.15

**Q.** With `O=C(O)C[C@H](NC(=O)CN1CCCC(CCc2ccc3c(n2)NCCC3)C1=O)c1cccnc1` (stereo partly drawn) [3-(2-{2-Oxo-3-[2-(5,6,7,8-tetrahydro-[1,8]naphthyridin-2-yl)-ethyl]-piperidin-1-yl}-acetylamino)-3-(S)-pyridin-3-yl-propionic acid] as the compound, how does the pIC50 read?
**A.** < 5.00

**Q.** With `O=C(O)C[C@H](NC(=O)CN1CC[C@@H](CCc2ccc3c(n2)NCCC3)C1=O)c1cccnc1` [(S)-3-(2-{(R)-2-Oxo-3-[2-(5,6,7,8-tetrahydro-[1,8]naphthyridin-2-yl)-ethyl]-pyrrolidin-1-yl}-acetylamino)-3-pyridin-3-yl-propionic acid] as the compound, how does the pIC50 read?
**A.** < 5.00
